Results as given in the NIST ThermoML archive (doi:10.1016/j.fluid.2019.05.003).

Assay: xn = mol fraction of the nth substance listed
Details: 101 kPa, Liquid; for viscosity: Falling or rolling sphere viscometry; for mass density: Vibrating tube method

CC[N+]1(C)CCOCC1.[Br-] [N-ethyl-N-methylmorpholinium bromide] + O
Details	mass density [kg/m3]	viscosity [mPa·s]
298.15 K, x1 = 0.023	1062.6	1.197
298.15 K, x1 = 0.045	1111.8	1.56
298.15 K, x1 = 0.07	1156	2.228
298.15 K, x1 = 0.1	1197.3	3.5
298.15 K, x1 = 0.128	1227	5.195
298.15 K, x1 = 0.16	1254.9	8.371
298.15 K, x1 = 0.192	1278.3	13.81
298.15 K, x1 = 0.22	1295.2	22.13
298.15 K, x1 = 0.252	1311.3	37.25
303.15 K, x1 = 0.023	1060.7	1.06
303.15 K, x1 = 0.045	1109.6	1.391
303.15 K, x1 = 0.07	1153.6	1.983
303.15 K, x1 = 0.1	1194.6	3.126
303.15 K, x1 = 0.128	1224.2	4.423
303.15 K, x1 = 0.16	1252	7.156
303.15 K, x1 = 0.192	1275.3	11.53
303.15 K, x1 = 0.22	1292.1	18.2
303.15 K, x1 = 0.252	1308.2	29.81
308.15 K, x1 = 0.023	1058.6	0.961
308.15 K, x1 = 0.045	1107.3	1.254
308.15 K, x1 = 0.07	1151	1.778
308.15 K, x1 = 0.1	1191.8	2.816
308.15 K, x1 = 0.128	1221.3	3.944
308.15 K, x1 = 0.16	1249	6.192
308.15 K, x1 = 0.192	1272.3	9.829
308.15 K, x1 = 0.22	1289	15.03
308.15 K, x1 = 0.252	1305	24.22
313.15 K, x1 = 0.023	1056.3	0.876
313.15 K, x1 = 0.045	1104.8	1.136
313.15 K, x1 = 0.07	1148.3	1.566
313.15 K, x1 = 0.1	1189	2.543
313.15 K, x1 = 0.128	1218.4	3.485
313.15 K, x1 = 0.16	1246	5.438
313.15 K, x1 = 0.192	1269.2	8.443
313.15 K, x1 = 0.22	1285.9	12.5
313.15 K, x1 = 0.252	1301.9	19.81
318.15 K, x1 = 0.023	1053.7	0.805
318.15 K, x1 = 0.045	1102.2	1.037
318.15 K, x1 = 0.07	1145.6	1.45
318.15 K, x1 = 0.1	1186.1	2.291
318.15 K, x1 = 0.128	1215.4	3.1
318.15 K, x1 = 0.16	1243	4.738
318.15 K, x1 = 0.192	1266.1	7.253
318.15 K, x1 = 0.22	1282.8	10.46
318.15 K, x1 = 0.252	1298.7	16.49
323.15 K, x1 = 0.023	1051.7	0.756
323.15 K, x1 = 0.045	1099.6	0.953
323.15 K, x1 = 0.07	1142.8	1.328
323.15 K, x1 = 0.1	1183.2	2.098
323.15 K, x1 = 0.128	1212.4	2.776
323.15 K, x1 = 0.16	1239.9	4.235
323.15 K, x1 = 0.192	1263	6.32
323.15 K, x1 = 0.22	1279.7	8.952
323.15 K, x1 = 0.252	1295.6	13.88
328.15 K, x1 = 0.023	1049.5	0.717
328.15 K, x1 = 0.045	1097.1	0.879
328.15 K, x1 = 0.07	1139.8	1.22
328.15 K, x1 = 0.1	1180.2	1.908
328.15 K, x1 = 0.128	1209.4	2.493
328.15 K, x1 = 0.16	1236.8	3.696
328.15 K, x1 = 0.192	1259.9	5.528
328.15 K, x1 = 0.22	1276.5	7.778
328.15 K, x1 = 0.252	1292.4	11.84
333.15 K, x1 = 0.023	1047.3	0.638
333.15 K, x1 = 0.045	1094.6	0.813
333.15 K, x1 = 0.07	1137.3	1.123
333.15 K, x1 = 0.1	1177.3	1.748
333.15 K, x1 = 0.128	1206.3	2.263
333.15 K, x1 = 0.16	1233.7	3.324
333.15 K, x1 = 0.192	1256.7	4.903
333.15 K, x1 = 0.22	1273.3	6.702
333.15 K, x1 = 0.252	1289.2	10.27
338.15 K, x1 = 0.023	1045.1	0.624
338.15 K, x1 = 0.045	1092.1	0.764
338.15 K, x1 = 0.07	1134.6	1.051
338.15 K, x1 = 0.1	1174.6	1.626
338.15 K, x1 = 0.128	1203.2	2.058
338.15 K, x1 = 0.16	1230.5	2.988
338.15 K, x1 = 0.192	1253.5	4.274
338.15 K, x1 = 0.22	1270.1	5.649
338.15 K, x1 = 0.252	1286	8.914
343.15 K, x1 = 0.023	1042.8	0.579
343.15 K, x1 = 0.045	1089.6	0.716
343.15 K, x1 = 0.07	1131.9	0.97
343.15 K, x1 = 0.1	1171.7	1.49
343.15 K, x1 = 0.128	1200	1.882
343.15 K, x1 = 0.16	1227.3	2.726
343.15 K, x1 = 0.192	1250.3	3.874
343.15 K, x1 = 0.22	1266.9	5.218
343.15 K, x1 = 0.252	1282.7	7.822
348.15 K, x1 = 0.023	1040.6	0.551
348.15 K, x1 = 0.045	1087.2	0.675
348.15 K, x1 = 0.07	1129.2	0.901
348.15 K, x1 = 0.1	1168.8	1.357
348.15 K, x1 = 0.128	1196.7	1.733
348.15 K, x1 = 0.16	1224.1	2.517
348.15 K, x1 = 0.192	1247.1	3.514
348.15 K, x1 = 0.22	1263.6	4.632
348.15 K, x1 = 0.252	1279.5	6.907

C[N+]1(CCO)CCOCC1.[Br-] [N-methyl-N-(2-hydroxyethyl)morpholinium bromide] + O
Details	mass density [kg/m3]	viscosity [mPa·s]
298.15 K, x1 = 0.023	1078.7	1.173
298.15 K, x1 = 0.038	1121	1.482
298.15 K, x1 = 0.051	1150.9	1.716
298.15 K, x1 = 0.075	1197.8	2.345
298.15 K, x1 = 0.097	1232	3.195
298.15 K, x1 = 0.124	1264.8	4.717
298.15 K, x1 = 0.157	1297.5	7.331
298.15 K, x1 = 0.197	1328.8	14.15
298.15 K, x1 = 0.227	1345.7	20.61
303.15 K, x1 = 0.023	1076.7	1.058
303.15 K, x1 = 0.038	1118.8	1.33
303.15 K, x1 = 0.051	1148.6	1.536
303.15 K, x1 = 0.075	1195.3	2.087
303.15 K, x1 = 0.097	1229.3	2.831
303.15 K, x1 = 0.124	1262	4.126
303.15 K, x1 = 0.157	1294.6	6.314
303.15 K, x1 = 0.197	1325.9	12.14
303.15 K, x1 = 0.227	1342.8	17.39
308.15 K, x1 = 0.023	1074.6	0.962
308.15 K, x1 = 0.038	1116.5	1.206
308.15 K, x1 = 0.051	1146.2	1.385
308.15 K, x1 = 0.075	1192.7	1.878
308.15 K, x1 = 0.097	1226.6	2.526
308.15 K, x1 = 0.124	1259.2	3.653
308.15 K, x1 = 0.157	1291.7	5.635
308.15 K, x1 = 0.197	1322.9	10.46
308.15 K, x1 = 0.227	1339.7	14.76
313.15 K, x1 = 0.023	1072.3	0.88
313.15 K, x1 = 0.038	1114.1	1.101
313.15 K, x1 = 0.051	1143.6	1.26
313.15 K, x1 = 0.075	1190	1.7
313.15 K, x1 = 0.097	1223.8	2.278
313.15 K, x1 = 0.124	1256.4	3.255
313.15 K, x1 = 0.157	1288.8	4.938
313.15 K, x1 = 0.197	1319.9	9.042
313.15 K, x1 = 0.227	1336.7	12.6
318.15 K, x1 = 0.023	1069.8	0.81
318.15 K, x1 = 0.038	1111.6	1.011
318.15 K, x1 = 0.051	1141	1.154
318.15 K, x1 = 0.075	1187.3	1.547
318.15 K, x1 = 0.097	1221	2.062
318.15 K, x1 = 0.124	1253.5	2.921
318.15 K, x1 = 0.157	1285.8	4.371
318.15 K, x1 = 0.197	1316.9	7.869
318.15 K, x1 = 0.227	1333.7	10.85
323.15 K, x1 = 0.023	1066.9	0.754
323.15 K, x1 = 0.038	1109	0.933
323.15 K, x1 = 0.051	1138.2	1.061
323.15 K, x1 = 0.075	1184.5	1.416
323.15 K, x1 = 0.097	1218.1	1.88
323.15 K, x1 = 0.124	1250.5	2.641
323.15 K, x1 = 0.157	1282.8	3.899
323.15 K, x1 = 0.197	1313.9	6.877
323.15 K, x1 = 0.227	1330.6	9.429
328.15 K, x1 = 0.023	1064.7	0.703
328.15 K, x1 = 0.038	1106.2	0.871
328.15 K, x1 = 0.051	1135.9	0.982
328.15 K, x1 = 0.075	1181.6	1.305
328.15 K, x1 = 0.097	1215.1	1.718
328.15 K, x1 = 0.124	1247.6	2.4
328.15 K, x1 = 0.157	1279.8	3.505
328.15 K, x1 = 0.197	1310.7	6.095
328.15 K, x1 = 0.227	1327.5	8.272
333.15 K, x1 = 0.023	1062.5	0.656
333.15 K, x1 = 0.038	1103.3	0.807
333.15 K, x1 = 0.051	1133.3	0.913
333.15 K, x1 = 0.075	1178.7	1.201
333.15 K, x1 = 0.097	1212.1	1.581
333.15 K, x1 = 0.124	1244.5	2.186
333.15 K, x1 = 0.157	1276.7	3.163
333.15 K, x1 = 0.197	1307.8	5.346
333.15 K, x1 = 0.227	1324.2	7.316
338.15 K, x1 = 0.023	1060.1	0.632
338.15 K, x1 = 0.038	1101.2	0.756
338.15 K, x1 = 0.051	1130.8	0.849
338.15 K, x1 = 0.075	1175.6	1.135
338.15 K, x1 = 0.097	1209.5	1.453
338.15 K, x1 = 0.124	1241.5	2.007
338.15 K, x1 = 0.157	1273.5	2.854
338.15 K, x1 = 0.197	1304.7	4.811
338.15 K, x1 = 0.227	1321.1	6.504
343.15 K, x1 = 0.023	1057.7	0.596
343.15 K, x1 = 0.038	1098.7	0.716
343.15 K, x1 = 0.051	1128.3	0.796
343.15 K, x1 = 0.075	1173.2	1.055
343.15 K, x1 = 0.097	1206.6	1.339
343.15 K, x1 = 0.124	1238.3	1.873
343.15 K, x1 = 0.157	1270.4	2.621
343.15 K, x1 = 0.197	1301.5	4.333
343.15 K, x1 = 0.227	1317.9	5.834
348.15 K, x1 = 0.023	1055.3	0.561
348.15 K, x1 = 0.038	1096.2	0.675
348.15 K, x1 = 0.051	1125.7	0.749
348.15 K, x1 = 0.075	1170.4	0.996
348.15 K, x1 = 0.097	1203.8	1.259
348.15 K, x1 = 0.124	1235.2	1.719
348.15 K, x1 = 0.157	1267.6	2.407
348.15 K, x1 = 0.197	1298.3	3.882
348.15 K, x1 = 0.227	1315.1	5.243
